B1: MetMab: monovalent chimeric antibody targeted against c-Met (antibody, chains of the INN, looked up, V domains shown)
VH: EVQLVESGGGLVQPGGSLRLSCAASGYTFTSYWLHWVRQAPGKGLEWVGMIDPSNSDTRFNPNFKDRFTISADTSKNTAYLQMNSLRAEDTAVYYCATYRSYVTPLDYWGQGTLVTVSS
VL: DIQMTQSPSSLSASVGDRVTITCKSSQSLLYTSSQKNYLAWYQQKPGKAPKLLIYWASTRESGVPSRFSGSGSGTDFTLTISSLQPEDFATYYCQQYYAYPWTFGQGTKVEIK
modifications: one-armed monovalent
notes: monovalent chimeric antibody targeted against c-Met

How the values were obtained:
mAb 2 = experiment: Alanine scan ELISA and mAb 2 titration against peptides; type: binding, murine; conditions: for mAb 2 binding to alanine-substituted peptide: 0.05 μg/mL mAb 2, 1 mM DTT; for Increase mAb 2 binding in ascending order: titration of purified mAb 2 against peptides, 1 = least binding
Description: Variations of peptides O28 and O29, where each amino acid residue was sequentially substituted for an alanine residue, were synthesised. Streptavidin-coated plates (Pierce/Thermo Scientific, #15520) were blocked with 3% BSA/PBS at room temperature. The peptides were dissolved in DMSO and stored according to manufacturer's recommendation. Streptavidin-coated plates were coated with each peptide (5 μg/mL) overnight at room temperature. Wells were washed before hybridoma supernatant or purified monoclonal antibody was added to the each well. HRP-conjugated anti-mouse antibody was added to detect bound monoclonal antibodies. ELISA substrate (Bio-Rad #172-1067) solution was prepared freshly according to the manufacturer's instructions and added to the wells. Colour change was monitored by eye and the reaction was stopped by adding 100 mM sulphuric acid. Absorbance was read at 450 nm in a microplate reader (SPECTRAmax PLUS^384, Molecular Device, U.S.A.). The crystal structure of c-Met extracellular domain, accession number 1 SHY, was obtained from Protein Data Base (PDB). Computer imaging of the epitopes were analysed by PyMol (DeLano Scientific LLC, U.S.A.) software.
To identify residues within peptides O28 and O29 that are crucial for mAb 2-Met interaction, an alanine scan was performed. Variations of peptide O28 and O29, where each amino acid residue was sequentially substituted for an alanine residue, were synthesised (Table 3). Peptides P1 to P16 (with the SEQ II) NO: […]) and P17 to P31. (with the SEQ ID NO: 40 to 56) were derived from the original peptide O28 and O29 respectively. Using the same ELISA-based assay described above, synthesised peptides were added to streptavidin-coated wells and purified mAb 2 was added to each peptide containing well. mAb 2 binding was determined by absorbance reading at […]. […] Peptide O27, peptide O1 and no peptide were used as negative controls.
The substituted amino acid residues in these peptides are thus involved in mAb 2 epitope. […] This is supported by the loss of mAb 2 binding due to the substitution of proline by alanine in peptides P14, P25 and P10. To determine which residues play a more crucial role in mAb 2 binding, mAb 2 was titrated against the peptides (FIG. 12B). […] These residues are not consecutive residues.

c-Met [1] = molecular target: c-Met (Homo sapiens, UniProt P08581); conditions: background statement; cited from earlier work
c-Met (Homo sapiens, UniProt P08581), sequence (P08581 25-307): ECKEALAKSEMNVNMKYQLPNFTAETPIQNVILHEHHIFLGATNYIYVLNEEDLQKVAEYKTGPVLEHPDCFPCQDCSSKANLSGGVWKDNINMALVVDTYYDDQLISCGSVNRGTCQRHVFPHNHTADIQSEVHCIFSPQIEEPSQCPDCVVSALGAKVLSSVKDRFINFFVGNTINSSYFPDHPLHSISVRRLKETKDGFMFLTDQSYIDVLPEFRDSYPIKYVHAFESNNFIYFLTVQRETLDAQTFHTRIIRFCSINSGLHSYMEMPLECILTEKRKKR
c-Met (Homo sapiens, UniProt P08581), sequence (P08581 308-1390): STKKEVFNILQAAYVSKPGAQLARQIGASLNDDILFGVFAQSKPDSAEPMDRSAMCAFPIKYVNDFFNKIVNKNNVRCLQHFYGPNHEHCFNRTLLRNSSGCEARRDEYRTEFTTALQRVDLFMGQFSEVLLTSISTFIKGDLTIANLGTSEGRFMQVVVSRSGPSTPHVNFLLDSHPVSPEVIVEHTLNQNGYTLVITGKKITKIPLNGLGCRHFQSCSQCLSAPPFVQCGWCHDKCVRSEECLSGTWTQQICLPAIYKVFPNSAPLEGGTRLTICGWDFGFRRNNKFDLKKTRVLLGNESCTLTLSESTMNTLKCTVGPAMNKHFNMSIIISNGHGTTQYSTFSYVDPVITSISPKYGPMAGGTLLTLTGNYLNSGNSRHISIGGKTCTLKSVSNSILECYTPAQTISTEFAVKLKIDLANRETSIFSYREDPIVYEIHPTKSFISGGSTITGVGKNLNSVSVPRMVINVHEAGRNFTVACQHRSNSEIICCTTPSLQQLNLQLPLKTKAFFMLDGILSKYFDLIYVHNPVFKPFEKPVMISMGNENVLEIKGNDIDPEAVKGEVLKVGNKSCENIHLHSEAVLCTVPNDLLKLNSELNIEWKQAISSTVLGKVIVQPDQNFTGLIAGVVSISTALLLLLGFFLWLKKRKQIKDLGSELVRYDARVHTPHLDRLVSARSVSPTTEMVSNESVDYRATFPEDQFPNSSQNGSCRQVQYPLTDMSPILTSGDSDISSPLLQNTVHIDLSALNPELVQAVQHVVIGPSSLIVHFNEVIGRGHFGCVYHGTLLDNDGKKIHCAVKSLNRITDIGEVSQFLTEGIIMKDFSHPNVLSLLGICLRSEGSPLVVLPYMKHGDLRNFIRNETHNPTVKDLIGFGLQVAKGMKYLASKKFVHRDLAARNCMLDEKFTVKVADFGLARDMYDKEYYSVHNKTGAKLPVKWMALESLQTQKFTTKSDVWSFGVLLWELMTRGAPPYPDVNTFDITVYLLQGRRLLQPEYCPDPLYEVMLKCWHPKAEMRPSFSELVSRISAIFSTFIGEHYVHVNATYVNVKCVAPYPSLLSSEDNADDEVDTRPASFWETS

SNU-5 cells = experiment: CellTiter-Glo luminescent cell viability assay; type: cell-based, human; conditions: SNU-5, 72 hrs; mAb 10 μg/mL, SU11274 5 μM
Description: (§1) In order to determine if these antibodies have any physiological effects on tumour cells, 10 μg/mL of mAb was added to SNU-5 cells. […] This indicates SU11274 mode of mechanism is by activation of caspase which in turn result in apoptosis of SNU-5 tumour cells.
(§2) CellTiter-Glo® luminescent cell viability assay and Caspase-Glo® 3/7 Assay (Promega, U.S.A.) were used to determine cell viability and caspase activation respectively. SNU-5 cells (1×10^5 cells) were seeded in each 96-well and treated for 72 hrs before analysis. Cell viability and caspase activation were performed according to manufacturer's protocol. Luminescence was read using the EnVision plate reader (PerkinElmer, U.S.A.).

c-Met [2] = conditions: background statement; cited from earlier work
[3] = test system: caspase activation in SNU-5 cells; experiment: Caspase-Glo 3/7 caspase activation assay; type: cell-based, human; conditions: SNU-5, 72 hrs; mAb 10 μg/mL, SU11274 5 μM
Description: as §1, §2

HaCaT cells = experiment: Cell scatter assay; type: cell-based; conditions: 10 ng/mL HGF, controls
Description: Cell scattering is one of the biological hallmarks of c-Met activation. Agonist bivalent monoclonal antibodies targeting c-Met would activate c-Met and cause cells to become motile and disperse. Here, we examine the effects of purified anti-α-chain c-Met monoclonal antibodies on cell scatter. HaCaT cells were seeded at low density and allowed to grow until colonies formed. Cells were serum-starved for 24 hrs before incubating with 1 μg/mL monoclonal antibodies for 24 hrs. Cells were then fixed and stained with crystal violet. As a control, cell scatter of HaCaT cells was induced with 10 ng/mL of HGF (FIG. 5). […] Anti-HGF antibody and SU11274 were used as controls. SU11274 is a small molecule inhibitor of c-Met.
100-200 HaCaT cells were seeded in 24-well plates and allowed to grow until small colonies were formed (approximately 7 days). Cells were serum-starved for 24 hrs. Cells were incubated with purified monoclonal antibodies (1 μg/mL) for 24 hrs before rinsing twice in cold PBS and fixing in ice-cold methanol. Cells were then stained in 1% crystal-violet (Sigma-Aldrich) solution. Cell staining was observed using Zeiss Axiovert 25 inverted microscope and pictures were taken using a Canon EOS 1000 D camera.

Molecule	mAb 2 binding to alanine-substituted peptide (mAb 2)	Increase mAb 2 binding in ascending order (mAb 2)	also measured
CIFSPQIEAPSQCPD [P9, alanine-substituted variant of peptide O28]	failed to bind	4	–
QIEEPSQCPDCVVSA [O29, pepscan peptide of human c-Met α-chain]	–	11	–
CIFSPQAEEPSQCPD [P7, alanine-substituted variant of peptide O28]	failed to bind	8	–
CIFSPQIAEPSQCPD [P8, alanine-substituted variant of peptide O28]	failed to bind	–	–
CIFSPQIEEPSQCPD [O28, pepscan peptide of human c-Met α-chain]	–	11	–
Cc1[nH]c(/C=C2\C(=O)Nc3ccc(S(=O)(=O)Cc4c(Cl)cccc4Cl)cc32)c(C)c1C(=O)N1CCC[C@@H]1CN1CCCC1 [PHA-665752]	–	–	inhibition of c-Met activation (c-Met [1]): extremely successful
Cc1[nH]c(/C=C2\C(=O)Nc3ccc(S(=O)(=O)N(C)c4cccc(Cl)c4)cc32)c(C)c1C(=O)N1CCN(C)CC1 [SU11274]	–	–	cell viability (SNU-5 cells): significant reduction; inhibition of c-Met activation (c-Met [1]): extremely successful; activity against specific c-Met mutations (c-Met [2]): ineffective; caspase activation [3]: high caspase activation; HGF-induced cell scatter (HaCaT cells): remained circular
AIEEPSQCPDCVVSA [P17, alanine-substituted variant of peptide O29]	failed to bind	5	–
CIFSPQIEEASQCPD [P10, alanine-substituted variant of peptide O28]	failed to bind	7	–
CIFSPQIEEPSQCAD [P14, alanine-substituted variant of peptide O28]	failed to bind	–	–
COc1cc2c(Oc3ccc(-c4cnc(Cc5ccccc5)n(C)c4=O)cc3F)ccnc2cc1OCCCN1CCOCC1 [AM7]	–	–	inhibition of c-Met activation (c-Met [1]): extremely successful
QIAEPSQCPDCVVSA [P19, alanine-substituted variant of peptide O29]	failed to bind	6	–
QIEAPSQCPDCVVSA [P20, alanine-substituted variant of peptide O29]	failed to bind	9	–
AIFSPQIEEPSQCPD [P1, alanine-substituted variant of peptide O28]	failed to bind	–	–
CIFSPQIEEPSQCPA [P15, alanine-substituted variant of peptide O28]	failed to bind	10	–
QIEEPSQCADCVVSA [P25, alanine-substituted variant of peptide O29]	failed to bind	3	–
B1	–	–	agonist/antagonist activity towards c-Met (c-Met [1]): antagonist

From patent US9994644B2, “mAB 2 anti-Met antibody” (Agency for Science, Technology and Research, priority 2013, dated 2018)
